Assay results published in ChEMBL document CHEMBL1158912, “Structure and in vitro antiviral activity of sesquiterpene glycosides from Calendula arvensis” (J Nat Prod, 1990).
≈ marks a conversion by molar mass, not a printed value.

Experiments:
[1] = test system: Vesicular stomatitis virus; assay: Antiviral activity against VSV infected in CER cells assessed as reduction in plaque formation at 20 ug/ml after 48 hrs by neutral red assay; format: functional; design: scale not given: the % may be the effect or the level left
[2] = test system: Vesicular stomatitis virus; assay: Antiviral activity against VSV infected in CER cells assessed as reduction in plaque formation after 48 hrs by neutral red assay; format: functional
[3] = Cytotoxicity against golden hamster CER cells assessed as cell viability at 20 ug/mL after 48 hrs by neutral red assay; format: cell-based, Mesocricetus auratus
[4] = test system: HeLa; assay: Cytotoxicity against human HeLa cells assessed as cell viability at 100 ug/mL after 48 hrs by neutral red assay; format: cell-based
[5] = test system: HeLa; assay: Cytotoxicity against human HeLa cells assessed as cell viability at 20 ug/mL after 48 hrs by neutral red assay; format: cell-based
[6] = test system: rhinovirus A1B; assay: Antiviral activity against HRV1B infected in human HeLa cells assessed as inhibition of virus-induced cytopathicity at 20 ug/ml after 48 hrs; format: functional, Human rhinovirus 1B; design: scale not given: the % may be the effect or the level left
[7] = test system: Vesicular stomatitis virus; assay: Antiviral activity against VSV infected in CER cells assessed as reduction in plaque formation at 0.8 ug/ml after 48 hrs by neutral red assay; format: functional; design: scale not given: the % may be the effect or the level left
[8] = test system: rhinovirus A1B; assay: Antiviral activity against HRV1B infected in human HeLa cells assessed as inhibition of virus-induced cytopathicity at 0.8 ug/ml after 48 hrs; format: functional, Human rhinovirus 1B; design: scale not given: the % may be the effect or the level left
[9] = Cytotoxicity against golden hamster CER cells assessed as cell viability at 100 ug/mL after 48 hrs by neutral red assay; format: cell-based, Mesocricetus auratus
[10] = test system: Vesicular stomatitis virus; assay: Antiviral activity against VSV infected in CER cells assessed as reduction in plaque formation at 4 ug/ml after 48 hrs by neutral red assay; format: functional; design: scale not given: the % may be the effect or the level left
[11] = test system: rhinovirus A1B; assay: Antiviral activity against HRV1B infected in human HeLa cells assessed as inhibition of virus-induced cytopathicity at 4 ug/ml after 48 hrs; format: functional, Human rhinovirus 1B; design: scale not given: the % may be the effect or the level left
[12] = test system: rhinovirus A1B; assay: Antiviral activity against HRV1B infected in human HeLa cells assessed as inhibition of virus-induced cytopathicity at 50 ug/ml after 48 hrs; format: functional, Human rhinovirus 1B; design: scale not given: the % may be the effect or the level left
[13] = test system: rhinovirus A1B; assay: Antiviral activity against HRV1B infected in human HeLa cells assessed as inhibition of virus-induced cytopathicity at 100 ug/ml after 48 hrs; format: functional, Human rhinovirus 1B; design: scale not given: the % may be the effect or the level left
[14] = test system: Vesicular stomatitis virus; assay: Antiviral activity against VSV infected in CER cells assessed as reduction in plaque formation at 100 ug/ml after 48 hrs by neutral red assay; format: functional; design: scale not given: the % may be the effect or the level left
[15] = test system: Vesicular stomatitis virus; assay: Antiviral activity against VSV infected in CER cells assessed as reduction in plaque formation at 50 ug/ml after 48 hrs by neutral red assay; format: functional; design: scale not given: the % may be the effect or the level left

For `C/C=C(\C)C(=O)O[C@H]1[C@H](O[C@]2(C)CC[C@@H]3[C@H]([C@@H]4[C@H](C)CC[C@@H]42)C3(C)C)O[C@H](C)[C@H](O)[C@@H]1O`, the Activity [1] was 22%, the MIC50 [2] was over 20 µg/mL and the Activity [3] was “Non-toxic”. For the same molecule, the Activity [4] was “Non-toxic”, the Activity [5] was “Non-toxic” and the Activity [6] was 0%. For the same molecule, the Activity [7] was 0%, the Activity [8] was 0% and the Activity [9] was “Non-toxic”. It also gave an Activity [10] of 13% and an Activity [11] of 0%.
For `CCC(C)C(=O)O[C@H]1[C@H](O[C@]2(C)CC[C@@H]3[C@H]([C@@H]4[C@H](C)CC[C@@H]42)C3(C)C)O[C@H](C)[C@H](O)[C@@H]1O` (some centres undefined), the Activity [1] was 30%, the MIC50 [2] was over 20 µg/mL and the Activity [3] was “Non-toxic”. For the same molecule, the Activity [4] was “Non-toxic”, the Activity [5] was “Non-toxic” and the Activity [6] was 0%. The Activity [7] was 5%, the Activity [8] was 0% and the Activity [9] was “Non-toxic”. The Activity [10] was 20% and the Activity [11] was 0%.
With `CC(=O)O[C@H]1[C@H](O[C@]2(C)CC[C@@H]3[C@H]([C@@H]4[C@H](C)CC[C@@H]42)C3(C)C)O[C@H](C)[C@H](O)[C@@H]1O` the Activity [1] was 10%, the MIC50 [2] was over 20 µg/mL and the Activity [3] was “Non-toxic”. For the same molecule, the Activity [4] was “Non-toxic”, the Activity [5] was “Non-toxic” and the Activity [6] was 0%. For the same molecule, the Activity [7] was 0%, the Activity [8] was 0% and the Activity [9] was “Non-toxic”. For the same molecule, the Activity [10] was 7% and the Activity [11] was 0%.
With `CC/C(C)=C\C(=O)O[C@H]1[C@H](O[C@]2(C)CC[C@@H]3[C@H]([C@@H]4[C@H](C)CC[C@@H]42)C3(C)C)O[C@H](C)[C@H](O)[C@@H]1O` the Activity [1] was 22%, the MIC50 [2] was over 20 µg/mL and the Activity [3] was “Non-toxic”. For the same molecule, the Activity [4] was “Non-toxic”, the Activity [5] was “Non-toxic” and the Activity [6] was 0%. The Activity [7] was 5%, the Activity [8] was 0% and the Activity [9] was “Non-toxic”. For the same molecule, the Activity [10] was 18% and the Activity [11] was 0%.
For `CC(C)C(=O)O[C@H]1[C@H](O[C@]2(C)CC[C@@H]3[C@H]([C@@H]4[C@H](C)CC[C@@H]42)C3(C)C)O[C@H](C)[C@H](O)[C@@H]1O`, the Activity [1] was 9%, the MIC50 [2] was over 20 µg/mL and the Activity [3] was “Non-toxic”. For the same molecule, the Activity [4] was “Non-toxic”, the Activity [5] was “Non-toxic” and the Activity [6] was 0%. For the same molecule, the Activity [7] was 0%, the Activity [8] was 0% and the Activity [9] was “Non-toxic”. It also gave an Activity [10] of 0% and an Activity [11] of 0%.
In the case of `C[C@@H]1CC[C@H]2[C@@H]1[C@H]1[C@@H](CC[C@@]2(C)O[C@@H]2O[C@H](C)[C@H](O)[C@H](O)[C@H]2O)C1(C)C`, the Activity [1] was 73%, the MIC50 [2] was 14 µg/mL (≈ 38 µM) and the Activity [3] was “Non-toxic”. For the same molecule, the Activity [4] was “Non-toxic”, the Activity [5] was “Non-toxic” and the Activity [6] was 0%. For the same molecule, the Activity [7] was 8%, the Activity [8] was 0% and the Activity [9] was “Non-toxic”. For the same molecule, the Activity [10] was 19% and the Activity [11] was 0%.
Molecule `CC(C)[C@@H]1CC[C@@H](C)C23CC[C@@](C)(O[C@@H]4O[C@H](C)[C@H](O)[C@H](O)[C@H]4O)[C@@H]2[C@@H]13` (some centres undefined) [EPICUBEBOL GLYCOSIDE] has an Activity [1] of 4%, an Activity [12] of 0% and an MIC50 [2] of 36 µg/mL (≈ 97.7 µM). For the same molecule, the Activity [3] was “Non-toxic”, the Activity [4] was “Non-toxic” and the Activity [13] was 25%. For the same molecule, the Activity [14] was 100%, the Activity [5] was “Non-toxic” and the Activity [6] was 0%. For the same molecule, the Activity [15] was 90%, the Activity [9] was “Non-toxic” and the Activity [10] was 0%. For the same molecule, the Activity [11] was 0%.
